Source: BindingDB's records for doi:10.1016/j.bmcl.2010.05.049 (University of Athens, 2010)

Test: Binding affinity to Influenza A Weybridge(H7N7) virus Matrix protein 2 by spectrophotometry
NC12CC3CC(CC(C3)C1)C2 [SYMADINE] gave a Kd of 320 nM.
For C1CNC2(C1)C1CC3CC(C1)CC2C3 (stereo unspecified), the Kd was 1160 nM.
Work on NC12CC3CC(C1)CC(F)(C3)C2 yielded a Kd of 4860 nM.
NC1CCCCCCC1 [Cyclooctanamine] gave a Kd of 1830 nM.
CCC1CCC2(N1)C1CC3CC(C1)CC2C3 (stereo unspecified) gave a Kd of 5580 nM.
In the case of C1CCC(C23CC4CC(CC(C4)C2)C3)NC1 (stereo unspecified), the Kd is reported as 1510 nM.
Compound C1CNC(C23CC4CC(CC(C4)C2)C3)C1 (stereo unspecified) has a Kd of 510 nM.
With O=C1CCC2(N1)C1CC3CC(C1)CC2C3 (stereo unspecified) the Kd was 1490 nM.
In the case of CCCC1(N)C2CC3CC(C2)CC1C3 (stereo unspecified), the Kd is reported as 8710 nM.
With CC1CCC2(N1)C1CC3CC(C1)CC2C3 (stereo unspecified) the Kd was 1500 nM.
Work on NC1C2CC3CC(C2)CC1C3 (stereo unspecified) [2-Adamantanamine] yielded a Kd of 2360 nM.
In the case of NC1CCCCCC1 [Cycloheptanamine], the Kd is reported as 16200 nM.
For CC1(N)C2CC3CC(C2)CC1C3 (stereo unspecified), the Kd was 3600 nM.
For CN1CCCC12C1CC3CC(C1)CC2C3 (stereo unspecified), the Kd was 2930 nM.
CCC1(N)C2CC3CC(C2)CC1C3 (stereo unspecified) showed a Kd of 6700 nM.
C1CCC2(NC1)C1CC3CC(C1)CC2C3 (stereo unspecified) gave a Kd of 390 nM.
